Experimental data: patent USRE32311E
In brackets after ≈: the same amount, converted by molar mass.

Tests used:
[1] = tested on: Streptococcus Group D 9960; test: agar-dilution MIC; assay type: cell-based
[2] = tested on: Staphylococcus aureus X400; test: agar-dilution MIC; assay type: cell-based; conditions: Staphylococcus aureus X400, methicillin-resistant strain
Description: (§1) In Table VII activity is measured by the minimal inhibitory concentration (MIC), i.e. the lowest concentration of compound at which growth of the microorganism is inhibited by the test compound.

[3] = tested on: Staphylococcus epidermidis EP11; test: agar-dilution MIC; assay type: cell-based
Description: as §1

[4] = tested on: Streptococcus pneumoniae Park I; assay type: cell-based; conditions: agar dilution
Description: as §1

[5] = tested on: Staphylococcus aureus V41; test: agar-dilution MIC; assay type: cell-based; conditions: Staphylococcus aureus V41, penicillin-resistant strain
Description: as §1

[6] = tested on: Staphylococcus epidermidis EP12; test: agar-dilution MIC; assay type: cell-based
Description: as §1

[7] = tested on: Staphylococcus aureus X1.1; test: agar-dilution MIC; assay type: cell-based
[8] = tested on: Streptococcus Group D X66; test: agar-dilution MIC; assay type: cell-based
Description: as §1

[9] = tested on: Streptococcus pyogenes C203; test: agar-dilution MIC; assay type: cell-based
Description: as §1

[10] = tested on: Staphylococcus aureus; test: experimental bacterial infection in mice, ED50; assay type: in vivo; conditions: two doses
[11] = toxicity, LD50 in mice; assay type: in vivo; conditions: administered intravenously
[12] = tested on: Streptococcus pyogenes; test: experimental bacterial infection in mice, ED50; assay type: in vivo; conditions: two doses

Structure (SMILES) | MIC [1] | MIC [2] | MIC [3] | MIC [4] | MIC [5] | MIC [6] | MIC [7] | MIC [8] | MIC [9] | ED50 Staphylococcus aureus Subcutaneous [10] | LD50 in Mice [11] | ED50 Streptococcus pyogenes Oral [12] | ED50 Streptococcus pyogenes Subcutaneous [12]
CCCCCCCCCC(=O)N[C@@H](Cc1c[nH]c2ccccc12)C(=O)N[C@@H](CC(N)=O)C(=O)N[C@@H](CC(=O)O)C(=O)N[C@@H]1C(=O)NCC(=O)N[C@@H](CCCN)C(=O)N[C@@H](CC(=O)O)C(=O)N[C@H](C)C(=O)N[C@@H](CC(=O)O)C(=O)NCC(=O)N[C@H](CO)C(=O)N[C@@H]([C@H](C)CC(=O)O)C(=O)N[C@@H](CC(=O)c2ccccc2N)C(=O)O[C@@H]1C [Compound 6] | 2 µg/mL (≈ 1.23 µM) | 4 µg/mL (≈ 2.47 µM) | 2 µg/mL (≈ 1.23 µM) | 2 µg/mL (≈ 1.23 µM) | 2 µg/mL (≈ 1.23 µM) | 2 µg/mL (≈ 1.23 µM) | 1 µg/mL (≈ 0.617 µM) | 16 µg/mL (≈ 9.87 µM) | 0.5 µg/mL (≈ 0.309 µM) |  |  |  | 
CCCCCCCCCCCC(=O)N[C@@H](Cc1c[nH]c2ccccc12)C(=O)N[C@@H](Cc1c[nH]c2ccccc12)C(=O)N[C@H](CC(N)=O)C(=O)N[C@@H](CC(=O)O)C(=O)N[C@@H]1C(=O)NCC(=O)N[C@@H](CCCN)C(=O)N[C@@H](CC(=O)O)C(=O)N[C@H](C)C(=O)N[C@@H](CC(=O)O)C(=O)NCC(=O)N[C@H](CO)C(=O)N[C@@H]([C@H](C)CC(=O)O)C(=O)N[C@@H](CC(=O)c2ccccc2N)C(=O)O[C@@H]1C [Compound 24] | 4 µg/mL (≈ 2.18 µM) | 4 µg/mL (≈ 2.18 µM) | 4 µg/mL (≈ 2.18 µM) | 1 µg/mL (≈ 0.545 µM) | 2 µg/mL (≈ 1.09 µM) | 4 µg/mL (≈ 2.18 µM) | 1 µg/mL (≈ 0.545 µM) | 16 µg/mL (≈ 8.72 µM) | 2 µg/mL (≈ 1.09 µM) | 2.3 mg/kg × 2 | 450 mg/kg | > 200 mg/kg × 2 | 
CCCCCCCCCCC(=O)N[C@@H](Cc1ccccc1)C(=O)NCCC[C@@H]1NC(=O)CNC(=O)[C@@H](NC(=O)[C@H](CC(=O)O)NC(=O)[C@@H](CC(N)=O)NC(=O)[C@@H](N)Cc2c[nH]c3ccccc23)[C@@H](C)OC(=O)[C@H](CC(=O)c2ccccc2N)NC(=O)[C@H]([C@H](C)CC(=O)O)NC(=O)[C@@H](CO)NC(=O)CNC(=O)[C@H](CC(=O)O)NC(=O)[C@@H](C)NC(=O)[C@H](CC(=O)O)NC1=O [Compound 26] | 32 µg/mL (≈ 18 µM) |  |  |  |  |  | 8 µg/mL (≈ 4.49 µM) |  | 1 µg/mL (≈ 0.561 µM) | 9.2 mg/kg × 2 |  | > 200 mg/kg × 2 | > 18 mg/kg × 2
CCCCCCCCCCCC(=O)NCCCCC(=O)N[C@@H](Cc1c[nH]c2ccccc12)C(=O)N[C@H](CC(N)=O)C(=O)N[C@@H](CC(=O)O)C(=O)N[C@@H]1C(=O)NCC(=O)N[C@@H](CCCN)C(=O)N[C@@H](CC(=O)O)C(=O)N[C@H](C)C(=O)N[C@@H](CC(=O)O)C(=O)NCC(=O)N[C@H](CO)C(=O)N[C@@H]([C@H](C)CC(=O)O)C(=O)N[C@@H](CC(=O)c2ccccc2N)C(=O)O[C@@H]1C [Compound 2] | 8 µg/mL (≈ 4.58 µM) | 4 µg/mL (≈ 2.29 µM) | 4 µg/mL (≈ 2.29 µM) | 4 µg/mL (≈ 2.29 µM) | 4 µg/mL (≈ 2.29 µM) | 2 µg/mL (≈ 1.14 µM) | 4 µg/mL (≈ 2.29 µM) | 32 µg/mL (≈ 18.3 µM) | 1 µg/mL (≈ 0.572 µM) |  | > 600 mg/kg | 117 mg/kg × 2 | 
CCCCCCCCCCCCCCCC(=O)N[C@@H](Cc1c[nH]c2ccccc12)C(=O)N[C@@H](CC(N)=O)C(=O)N[C@@H](CC(=O)O)C(=O)N[C@@H]1C(=O)NCC(=O)N[C@@H](CCCN)C(=O)N[C@@H](CC(=O)O)C(=O)N[C@H](C)C(=O)N[C@@H](CC(=O)O)C(=O)NCC(=O)N[C@H](CO)C(=O)N[C@@H]([C@H](C)CC(=O)O)C(=O)N[C@@H](CC(=O)c2ccccc2N)C(=O)O[C@@H]1C [Compound 10] | 2.1 µg/mL (≈ 1.23 µM) |  | 2.1 µg/mL (≈ 1.23 µM) | 0.25 µg/mL (≈ 0.147 µM) |  |  |  |  | 0.06 µg/mL (≈ 0.0352 µM) |  | 450 mg/kg |  | 0.69 mg/kg × 2
CCCCCCCCCCCC(=O)Nc1cccc(C(=O)N[C@@H](Cc2c[nH]c3ccccc23)C(=O)N[C@H](CC(N)=O)C(=O)N[C@@H](CC(=O)O)C(=O)N[C@@H]2C(=O)NCC(=O)N[C@@H](CCCN)C(=O)N[C@@H](CC(=O)O)C(=O)N[C@H](C)C(=O)N[C@@H](CC(=O)O)C(=O)NCC(=O)N[C@H](CO)C(=O)N[C@@H]([C@H](C)CC(=O)O)C(=O)N[C@@H](CC(=O)c3ccccc3N)C(=O)O[C@@H]2C)c1 [Compound 5] | 1 µg/mL (≈ 0.566 µM) | 1 µg/mL (≈ 0.566 µM) | 2 µg/mL (≈ 1.13 µM) | 0.25 µg/mL (≈ 0.141 µM) | 0.5 µg/mL (≈ 0.283 µM) | 1 µg/mL (≈ 0.566 µM) | 0.5 µg/mL (≈ 0.283 µM) | 4 µg/mL (≈ 2.26 µM) | 0.25 µg/mL (≈ 0.141 µM) | 1.67 mg/kg × 2 | 277 mg/kg | > 200 mg/kg × 2 | 
CCCCCCCCCCCC(=O)NCCCCCCCCCCC(=O)N[C@@H](Cc1c[nH]c2ccccc12)C(=O)N[C@H](CC(N)=O)C(=O)N[C@@H](CC(=O)O)C(=O)N[C@@H]1C(=O)NCC(=O)N[C@@H](CCCN)C(=O)N[C@@H](CC(=O)O)C(=O)N[C@H](C)C(=O)N[C@@H](CC(=O)O)C(=O)NCC(=O)N[C@H](CO)C(=O)N[C@@H]([C@H](C)CC(=O)O)C(=O)N[C@@H](CC(=O)c2ccccc2N)C(=O)O[C@@H]1C [Compound 3] | 8 µg/mL (≈ 4.37 µM) | 8 µg/mL (≈ 4.37 µM) | 8 µg/mL (≈ 4.37 µM) | 0.5 µg/mL (≈ 0.273 µM) | 2 µg/mL (≈ 1.09 µM) | 8 µg/mL (≈ 4.37 µM) | 2 µg/mL (≈ 1.09 µM) | 8 µg/mL (≈ 4.37 µM) | 2 µg/mL (≈ 1.09 µM) | > 18 mg/kg × 2 | 600 mg/kg | > 200 mg/kg × 2 | 6.2 mg/kg × 2
CCCCCCCCCC(=O)N[C@@H](Cc1ccccc1)C(=O)N[C@@H](Cc1c[nH]c2ccccc12)C(=O)N[C@H](CC(N)=O)C(=O)N[C@@H](CC(=O)O)C(=O)N[C@@H]1C(=O)NCC(=O)N[C@@H](CCCN)C(=O)N[C@@H](CC(=O)O)C(=O)N[C@H](C)C(=O)N[C@@H](CC(=O)O)C(=O)NCC(=O)N[C@H](CO)C(=O)N[C@@H]([C@H](C)CC(=O)O)C(=O)N[C@@H](CC(=O)c2ccccc2N)C(=O)O[C@@H]1C [Compound 19, NTrp-[N-(n-Decanoyl)-L-phenylalanyl]-A-21978C Nucleus] | 2 µg/mL (≈ 1.13 µM) | 1 µg/mL (≈ 0.566 µM) | 1 µg/mL (≈ 0.566 µM) | 0.75 µg/mL (≈ 0.424 µM) | 0.5 µg/mL (≈ 0.283 µM) | 0.5 µg/mL (≈ 0.283 µM) | 0.5 µg/mL (≈ 0.283 µM) | 8 µg/mL (≈ 4.53 µM) | 0.25 µg/mL (≈ 0.141 µM) |  | 600 mg/kg | > 200 mg/kg × 2 | 0.39 mg/kg × 2
CCCCCCCCC(=O)N[C@@H](Cc1ccccc1)C(=O)N[C@@H](Cc1c[nH]c2ccccc12)C(=O)N[C@H](CC(N)=O)C(=O)N[C@@H](CC(=O)O)C(=O)N[C@@H]1C(=O)NCC(=O)N[C@@H](CCCN)C(=O)N[C@@H](CC(=O)O)C(=O)N[C@H](C)C(=O)N[C@@H](CC(=O)O)C(=O)NCC(=O)N[C@H](CO)C(=O)N[C@@H]([C@H](C)CC(=O)O)C(=O)N[C@@H](CC(=O)c2ccccc2N)C(=O)O[C@@H]1C [Compound 18] | 8 µg/mL (≈ 4.56 µM) | 4 µg/mL (≈ 2.28 µM) | 4 µg/mL (≈ 2.28 µM) |  | 2 µg/mL (≈ 1.14 µM) | 2 µg/mL (≈ 1.14 µM) | 2 µg/mL (≈ 1.14 µM) | 32 µg/mL (≈ 18.2 µM) | 0.5 µg/mL (≈ 0.285 µM) | 1.38 mg/kg × 2 | > 600 mg/kg | 184 mg/kg × 2 | 0.59 mg/kg × 2
